# Source: patent US5478845A, “Piperidine derivatives” (Novo Nordisk A/S, priority 1993, dated 1995)
# Counter-ions that a name gives are not always drawn.
# Columns and labels:
# Design in all cases: species or system Male Wistar rats
# DOPAMINE D2 Receptor = target: T1, DOPAMINE D2 Receptor (Rattus norvegicus, UniProt P61169); test: TEST 1: In Vitro Inhibition of DOPAMINE D2 Receptor Binding (3H-Spiroperidol, rat striatum); settings: 3H-Spiroperidol (0.05 nM), rat striatum membranes, 20 min. at 37° C.; read-out: TEST 1 IC50 (concentration inhibiting specific binding by 50%)
# T1 construct: Male Wistar rats, 150-200 g are decapitated, striatum is removed quickly and weighed; from tissue; host or cells: rat striatum membrane fragments
# Method: TEST 1: In Vitro Inhibition of DOPAMINE D2 Receptor Binding
# (§1) Radioactive-labelled ligand ^3 H-Spiroperidol is incubated with isolated cell-membrane fragments at 37° C. for a given period of time. Following completed incubation, the incubate is filtered through GF/B filters which are rinsed following filtration to remove unspecifically adhered radioactivity. As opposed to low-molecular compounds, membrane fragments are not rinsed through the filters, the radioactivity bound to the filters is indicative of the amount of ligand bound specifically as well as nonspecifically to the membranes.
# The procedure is performed in ice bath. Polytron kinematica is rinsed with milli-Q--H2 O before and after use. Male Wistar rats, 150-200 g are decapitated, striatum is removed quickly and weighed (approx. 50 mg). Striatum is transferred to a centrifuging vial containing 10 ml ice-cold D2 buffer. Homogenization is performed applying polytron kinematica (homogenizer) setting 6 for 20 sec. The homogenizer is rinsed with 10 ml D2 buffer in another centrifuging vial. The 10 ml rinsing buffer is added to the tissue vial. Centrifugation at 18,000 rpm for 10 min. at 4° C. Final pellet is transferred to 1,000×vol. of same buffer. (Ex. 50 mg striatum in 50 ml D2 buffer). Can be stored at 0° C. for at least 4 hours. Note that the tissue must be monogeneous (uniform) before use. If not, brief homogenization is performed. […]
# 5HT2-Receptor = target: T2, 5HT2-Receptor (Rattus norvegicus, UniProt P14842); test: TEST 3: In Vitro Inhibition of 5HT2-Receptor Binding (3H-Ketanserine, rat frontal cortex); settings: 3H-Ketanserine (0.4 nM), rat frontal cortex membranes, 15 min. at 37° C.; read-out: TEST 3 IC50 (concentration inhibiting specific binding by 50%)
# T2 construct: Male Wistar rats, 150-200 g are decapitated; Frontal cortex is removed quickly; from tissue; host or cells: rat frontal cortex membrane fragments
# Method: TEST 3: In Vitro Inhibition of 5HT2 -Receptor Binding
# as §1, with “^3 H-Ketanserine” for “^3 H-Spiroperidol”, “isolated cell membrane” for “isolated cell-membrane”, “GF/B filters,” for “GF/B filters”, “filters indicates” for “filters is indicative of”
# The preparation is made in ice bath. Polytron kinematica is rinsed with milli-Q--H2 O before and after use. Male Wistar rats, 150-200 g are decapitated. Frontal cortex is removed quickly and weighed (approx. 200 mg). Frontal cortex is added to centrifuging vial containing 10 ml ice-cold D2 buffer. Homogenization applying polytron kinematica (homogenizer) setting 6 for 20 sec. The homogenizer is rinsed with 10 ml D2 buffer in another centrifuging vial. The 10 ml rinsing buffer is added to the tissue vial. Centrifuged at 18,000 rpm for 10 min. at 4° C. Final pellet is transferred to 125×vol. of same buffer. (Ex 200 mg in 25 ml D2 buffer). Can be stored for approx. 30 min. at 0° C.
# 25/μl ^3 H-Ketanserine (0.4 nM)
# 25/μl test substance/H2 O/blind cyproheptadine (2/μM)
# Incubation for 15 min. at 37° C. […]
# DOPAMINE D1 Receptor = target: T3, DOPAMINE D1 Receptor (Rattus norvegicus, UniProt P18901); test: TEST 2: In Vitro Inhibition of DOPAMINE D1 Receptor Binding (3H-SCH 23390, rat striatum); settings: 3H-SCH 23390 (0.2 nM), rat striatum membranes, 60 min. at 30° C.; read-out: TEST 2 IC50 (concentration inhibiting specific binding by 50%)
# T3 construct: Male Wistar rats, 150-200 g are decapitated; Striatum is removed quickly; from tissue; host or cells: rat striatum membrane fragments
# Method: TEST 2: In Vitro Inhibition of DOPAMINE D1 Receptor Binding
# Radioactive-labelled ligand ^3 H-SCH 23390 is incubated with isolated cell-membrane fragments in incubation buffer at 30° C. for a given period of time. Following completed incubation, the incubate is filtered through GF/B filters, which are rinsed following filtration to remove unspecifically adhered radioactivity. As opposed to low-molecular compounds, membrane fragments are not rinsed through the filters, the radioactivity bound to the filters indicates the amount of ligand bound specifically as well as nonspecifically to the membranes.
# Male Wistar rats, 150-200 g are decapitated. Striatum is removed quickly, weighed (approx. 50 mg) and carefully homogenized in 100×vol. of buffer I applying glass/teflon homogenizer 10 up/down strokes. Ex.: 50 mg striatum is homogenized in […] buffer I. The homogenate is centrifuged at 18,000 rpm for 20 min. at 4° C., and the supernate is decanted. This step is performed three times, and each time the pellet is resuspended and homogenized in 100×vol. of buffer I. Following the third centrifugation, the pellet is suspended in 100×vol. of resuspension buffer and homogenized. The tissue is now ready for use. The tissue is stable at 0° C. for 8 hours.
# 200 μl test substance/H2 O/blind (cis-flupentixol 2 μM)
# Incubation for 60 min. at 30° C.
# 10 ml of ice-cold 0.9% NaCl is added to the tubes. […]
# T1 sequence (P61169 whole entry, the tested form may be a part): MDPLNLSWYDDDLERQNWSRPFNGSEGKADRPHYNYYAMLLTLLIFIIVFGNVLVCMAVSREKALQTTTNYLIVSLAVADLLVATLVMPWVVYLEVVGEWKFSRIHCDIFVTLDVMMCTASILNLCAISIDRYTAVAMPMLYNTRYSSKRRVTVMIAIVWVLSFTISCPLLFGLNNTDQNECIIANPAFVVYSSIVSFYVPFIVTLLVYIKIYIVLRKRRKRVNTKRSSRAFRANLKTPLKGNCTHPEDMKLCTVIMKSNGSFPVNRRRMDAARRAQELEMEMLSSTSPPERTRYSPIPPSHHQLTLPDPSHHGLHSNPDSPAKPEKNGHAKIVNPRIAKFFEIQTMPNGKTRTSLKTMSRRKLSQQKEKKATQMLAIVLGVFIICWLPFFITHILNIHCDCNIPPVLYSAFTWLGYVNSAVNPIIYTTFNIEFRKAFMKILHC
# T3 sequence (P18901 whole entry, the tested form may be a part): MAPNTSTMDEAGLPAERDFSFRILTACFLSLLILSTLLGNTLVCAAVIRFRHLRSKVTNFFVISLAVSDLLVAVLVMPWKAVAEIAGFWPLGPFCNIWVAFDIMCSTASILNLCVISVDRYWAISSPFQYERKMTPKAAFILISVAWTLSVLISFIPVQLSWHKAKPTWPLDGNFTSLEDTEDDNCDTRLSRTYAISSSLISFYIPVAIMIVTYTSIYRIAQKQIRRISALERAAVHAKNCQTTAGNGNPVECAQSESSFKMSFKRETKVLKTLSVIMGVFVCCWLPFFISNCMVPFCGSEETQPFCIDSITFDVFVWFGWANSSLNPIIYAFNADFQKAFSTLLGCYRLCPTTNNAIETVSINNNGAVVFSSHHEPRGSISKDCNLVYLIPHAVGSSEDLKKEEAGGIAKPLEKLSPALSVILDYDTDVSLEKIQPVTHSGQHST
# T2 sequence (P14842 whole entry, the tested form may be a part): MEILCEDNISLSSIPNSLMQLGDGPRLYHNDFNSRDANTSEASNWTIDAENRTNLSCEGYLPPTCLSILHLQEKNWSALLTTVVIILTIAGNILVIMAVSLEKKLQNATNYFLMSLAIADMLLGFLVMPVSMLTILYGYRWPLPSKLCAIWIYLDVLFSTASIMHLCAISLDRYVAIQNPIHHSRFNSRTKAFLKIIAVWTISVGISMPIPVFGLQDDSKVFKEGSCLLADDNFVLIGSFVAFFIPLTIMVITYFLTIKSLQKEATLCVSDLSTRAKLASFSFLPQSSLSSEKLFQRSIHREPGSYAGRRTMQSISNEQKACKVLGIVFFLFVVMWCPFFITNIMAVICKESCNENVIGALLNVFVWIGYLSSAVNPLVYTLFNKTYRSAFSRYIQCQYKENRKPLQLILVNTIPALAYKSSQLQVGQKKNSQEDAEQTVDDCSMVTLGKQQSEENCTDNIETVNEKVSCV
Structure (SMILES),IC50 (DOPAMINE D2 Receptor) [nM],IC50 (5HT2-Receptor) [nM],IC50 (DOPAMINE D1 Receptor) [nM]
"CCN(C(=O)OCCCN1CCC(c2noc3cc(F)ccc23)CC1)c1ccc2c(c1)OCO2 [Example 2, 4-(6-Fluoro-1,2-benzisoxazol-3-yl)-1-(3-(N-ethyl-N-(3,4-methylenedioxyphenyl)carbamoyloxy)propylpiperidine, oxalate]",18,6.7,30
"CN(C(=O)OCCCN1CCC(c2noc3cc(F)ccc23)CC1)c1ccccc1 [Example 3, 4-(6-Fluoro-1,2-benzisoxazol-3-yl) -1-(3-(N-methyl-N-phenylcarbamoyloxy)propyl)piperidine, oxalate]",8.9,6.9,43
